PMC11243058, “Identification of Novel Isatin Derivative Bearing a Nitrofuran Moiety as Potent Multi-Isoform Aldehyde Dehydrogenase Inhibitor” (Molecules, 2024)
Where two headings read alike, the source gives them in different places.

How the values were obtained:
[1] = tested on: MiaPaCa-2; assay: Cell viability assay (MTS), MiaPaCa-2; format: cell-based, human; details: 48 h, mean ± SD
Protocol: (§1) Five thousand cells/well were plated in 96-well plates in growth media and left for attachment for 24 h. The cells were then treated with the respective compounds using varying concentrations for 48 h. At the end of the treatment duration, a solution of MTS [3-(4,5-dimethylthiazol-2-yl)-5-(3-carboxymethoxyphenyl)-2-(4-sulfophenyl)-2H-tetrazolium] and an electron coupling reagent, PES (phenazine ethosulfate) (Promega, Madison, WI, USA) was added to the cells. Then, 15 μL of MTS reagent was added to each well, and the absorbance was assessed at 490 nm with a microplate reader (Dynex Technologies, MRX Revelation; Chantilly, VA, USA) after 1 h incubation with MTS. The data were recorded, and the IC50 value was calculated using non-linear curve regression analysis (Graph pad V8.0, CA, USA).

[2] = tested on: HEK-293; assay: Cell viability assay (MTS), HEK-293; format: cell-based; details: 48 h, mean ± SD
Protocol: as §1

[3] = tested on: FHC; assay: Cell viability assay (MTS), FHC; format: cell-based; details: normal fetal human cells, 48 h, mean ± SD
Protocol: as §1

[4] = tested on: HCT-116; assay: Cell viability assay (MTS), HCT-116; format: cell-based, human; details: 48 h, mean ± SD
Protocol: as §1

[5] = target: T1, ALDH1A1 (Homo sapiens, UniProt P00352); assay: ALDH isoform-specific enzyme inhibition assay, ALDH1A1; format: biochemical; details: Acetaldehyde (Substrate); for inhibition at 0.5 µM: 500 nM
T1 construct: purchased R&D systems
T1 sequence (P00352 1-501): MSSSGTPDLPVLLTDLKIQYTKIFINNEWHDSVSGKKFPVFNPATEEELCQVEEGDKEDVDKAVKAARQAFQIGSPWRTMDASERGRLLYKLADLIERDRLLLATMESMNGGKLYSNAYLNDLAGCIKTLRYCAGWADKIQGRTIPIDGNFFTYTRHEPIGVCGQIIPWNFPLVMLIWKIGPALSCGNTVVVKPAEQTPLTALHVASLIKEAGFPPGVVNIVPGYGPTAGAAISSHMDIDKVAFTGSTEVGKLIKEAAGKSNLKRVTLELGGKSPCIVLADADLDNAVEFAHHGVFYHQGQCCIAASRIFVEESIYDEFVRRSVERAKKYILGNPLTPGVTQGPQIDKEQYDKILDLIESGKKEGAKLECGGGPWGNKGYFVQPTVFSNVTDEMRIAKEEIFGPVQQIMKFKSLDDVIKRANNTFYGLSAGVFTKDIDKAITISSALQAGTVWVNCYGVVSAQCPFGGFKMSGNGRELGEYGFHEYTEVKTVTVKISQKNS
Protocol: (§2) ALDH1A1, ALDH3A1, and ALDH1A3 enzyme inhibition assays were performed as reported previously. Briefly, 500 ng/100 uL of ALDH1A1, ALDH3A1, and ALDH1A3 were treated with 500 nM concentration of the tested compounds and incubated for 15 min followed by the addition of reaction mixture (substrate + Substrate mixture). […] The absorbance was measured at 450 nm. [Absorbance Control–Absorbance treated/Absorbance Control]100 was used to compute the percentage of inhibition.

[6] = target: T2, ALDH3A1 (Homo sapiens, UniProt P30838); assay: ALDH isoform-specific enzyme inhibition assay, ALDH3A1; format: biochemical; details: Acetaldehyde (Substrate); for inhibition at 0.5 µM: 500 nM
T2 construct: purchased R&D systems
T2 sequence (P30838 1-453): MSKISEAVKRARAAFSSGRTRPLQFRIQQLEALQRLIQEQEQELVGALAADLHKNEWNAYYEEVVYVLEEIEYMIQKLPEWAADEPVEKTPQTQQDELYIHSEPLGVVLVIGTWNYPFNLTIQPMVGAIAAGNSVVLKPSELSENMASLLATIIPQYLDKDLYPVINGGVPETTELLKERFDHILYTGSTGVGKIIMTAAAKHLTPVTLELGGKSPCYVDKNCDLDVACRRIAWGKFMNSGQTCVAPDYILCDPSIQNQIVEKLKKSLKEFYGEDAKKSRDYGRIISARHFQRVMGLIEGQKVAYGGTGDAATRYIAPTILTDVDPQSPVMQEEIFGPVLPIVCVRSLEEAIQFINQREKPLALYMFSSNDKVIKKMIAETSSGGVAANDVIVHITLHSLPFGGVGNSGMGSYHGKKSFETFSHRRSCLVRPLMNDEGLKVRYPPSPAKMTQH
Protocol: as §2

[7] = tested on: SKOV-3, MiaPaCa-2, HCT-116, HEK-293, and FHC cell lines; assay: Cell viability assay (MTS), statements over the cell line panel; format: cell-based, human
Protocol: as §1

[8] = tested on: SKOV-3; assay: Cell viability assay (MTS), SKOV-3; format: cell-based, human; details: 48 h, mean ± SD
Protocol: as §1

[9] = Cell viability assay (MTS), statements over the cell line panel; format: cell-based, human; details: human; range or statement over all tested cell lines, 48 h MTS; read-out: IC50 / cytotoxicity against the tested cell lines
Protocol: as §1

[10] = tested on: HCT-116 cells; assay: Apoptosis assay, Annexin V/7-AAD; format: cell-based, human; details: HCT-116, 3 µM, 48 h, relative to KS100
Protocol: (§3) The apoptosis assays were carried out following the manufacturer’s instructions using the Muse Caspase-3/7 assay kit and Annexin V/7-AAD kit (Luminex Corp., TX, US). In a 6-well plate, the cells were seeded at a density of 1X105 cells/well. The cells were treated with 3 µM of the compounds following a 24 h incubation period. The cells were cultured for 48 h (Annexin V/7-AAD) as opposed to 24 h (Caspase-3/7 test). Cell Dissociation buffer, an enzyme-free solution, was used to harvest the cells at the end of the treatment period. The samples were then given the appropriate dye treatments following the manufacturer’s instructions.

[11] = tested on: γH2AX in HCT-116 cells; assay: Western blot for γH2AX; format: cell-based, human; details: HCT-116, 3 µM, 12 h
Protocol: Western blotting was performed as described previously. The antibodies used were procured from Cell Signaling Technologies. […] The protein was transferred to a 0.45 µm pore membrane (Immobilon®-P PVDF Membrane, EMD Millipore, USA). The membranes were further treated with the respective primary and secondary antibodies. The Western blot images are representative of three independent experiments.

[12] = tested on: HCT-116 cells; assay: ROS generation (Muse Oxidative Stress Kit); format: cell-based, human; details: HCT-116, 3 µM, 24 h, relative to KS100
Protocol: The Muse® Oxidative Stress Kit (Luminex Corp., Austin, TX, USA) was used to assess the generation of ROS in the HCT-116 cells after the treatment with the compounds. In a 6-well plate, the cells were seeded at a density of 1 × 10^5 cells/well. After 24 h incubation, the cells were treated with the respective compounds with or without 5 mM of N-acetylcysteine (NAC) in the serum-enriched medium for 24 h. At the end of the treatment duration, the cells were harvested, and 10 μL of cells in suspension was added into each tube. Furthermore, 190 μL of Muse Oxidative Stress Reagent working solution was added to each tube. The samples were mixed thoroughly by pipetting up and down or vortexing at medium speed for 3 to 5 s. The samples were incubated for 30 min at 37 °C and analyzed using Muse Cell Analyzer.

[13] = tested on: UACC 903 cells; assay: ALDEFLUOR assay; format: cell-based, human; details: UACC 903 melanoma cells, 1 µM, 24 h
Protocol: Aldehyde dehydrogenase (ALDH) activity within human melanoma cells was assessed by utilizing the ALDEFLUOR Kit from […] Technologies. […] Post-treatment, cells were washed with PBS, and the ALDEFLUOR assay was performed following the manufacturer’s protocol, employing DEAB as a negative control. ALDH percentages were determined using a BD LSRFortessa flow cytometer (San Jose, CA, USA).

[14] = tested on: HCT-116 cells; assay: Apoptosis assay, Muse Caspase-3/7 7-AAD; format: cell-based, human; details: HCT-116, 3 µM, 24 h, relative to KS100
Protocol: as §3

[15] = Homo sapiens, MIA PaCa-2, pancreatic cancer cells
[16] = HEK293, human embryonic kidney cells
[17] = Homo sapiens, HCT-116, colon cancer cells
[18] = Homo sapiens, SK-OV-3, ovarian cancer cells

Question: Which IC50 ([1]; pancreatic cancer cells) does the source give for “4-((5-(Trifluoromethyl)-1H-indazol-1-yl)methyl)benzylcarbamimidothioate hydrobromide [Compound 12]” here?
Answer: The IC50 was 4.7 ± 0.4 µM.

Question: What about the IC50 ([2]; human embryonic kidney cells) of the same compound?
Answer: The IC50 was 4.7 ± 1.1 µM.

Question: And the IC50 [3]?
Answer: The IC50 was 3.1 ± 0.8 µM.

Question: What about the IC50 ([4]; colon cancer cells) of the same compound?
Answer: Its IC50 is 5.5 ± 0.1 µM.

Question: And the “% Enzyme Inhibition at 500 nM ALDH1A1” value [5]?
Answer: Its value is 10.01 ± 0.01%.

Question: What about the “% Enzyme Inhibition at 500 nM ALDH3A1” value [6] of the same compound?
Answer: The value was −14.03 ± 0.06%.

Question: And the IC50 ([7]; ovarian, colon, and pancreatic cancer cells, 48 h MTS, read-out: IC50 in cancer cell lines)?
Answer: Its IC50 is 4.7 to 33 µM.

Question: And the IC50 ([8]; ovarian cancer cells)?
Answer: Its IC50 is 8.2 ± 2.7 µM.

Question: What does the source list for `Br.C=CCNC(=N)SCc1ccc(CN2C(=O)C(=O)c3cc(Br)cc(Br)c32)cc1` [Compound 1, 4-((5,7-Dibromo-2,3-dioxoindolin-1-yl)methyl)benzyl allylcarbamimidothioate hydrobromide]?
Answer: melting point: 118 to 120 °C; IC50 [1, 15]: 2.4 ± 1.1 µM; IC50 [2, 16]: 4.1 ± 0.8 µM; IC50 ([3]; FHC): 2.9 ± 0.3 µM; IC50 [4, 17]: 4.7 ± 1.1 µM; inhibition at 0.5 µM [5]: 35.37 ± 0.01%; inhibition at 0.5 µM [6]: 30.59 ± 0.02%; IC50 at 48 h [9]: 2.1 to 6.8 µM; IC50 [8, 18]: 4.8 ± 0.2 µM

Question: For `COC(=O)/C=C/c1ccc(CN2C(=O)C(=O)c3cc(Br)cc(Br)c32)cc1` [Compound 2, Methyl (E)-3-(4-((5,7-dibromo-2,3-dioxoindolin-1-yl)methyl)phenyl)acrylate], which IC50 [1, 15] is on record?
Answer: Its IC50 is 22.3 ± 5.1 µM.

Question: And the IC50 [2, 16]?
Answer: The IC50 was 24.1 ± 6.8 µM.

Question: And the IC50 ([3]; FHC)?
Answer: The IC50 was 22.9 ± 3.3 µM.

Question: And the IC50 [4, 17]?
Answer: Its IC50 is 19.6 ± 3.3 µM.

Question: And the IC50 at 48 h [9]?
Answer: Its IC50 at 48 h is > 20 µM.

Question: And the IC50 [8, 18]?
Answer: The IC50 was 21.8 ± 2.4 µM.

Question: For `O=C(OCc1ccc(CN2C(=O)C(=O)c3cc(Br)cc(Br)c32)cc1)c1ccc([N+](=O)[O-])o1` [Compound 3, 4-((5,7-Dibromo-2,3-dioxoindolin-1-yl)methyl)benzyl 5-nitrofuran-2-carboxylate], which “more apoptotic cell population than KS100, Annexin V/7-AAD” value [10] is on record?
Answer: Its value is ~ 13%.

Question: What about the IC50 [1, 15] of the same compound?
Answer: Its IC50 is 3.8 ± 0.4 µM.

Question: And the γH2AX protein levels [11]?
Answer: Its γH2AX protein levels is “increased γH2AX protein levels”.

Question: What about the “more ROS than KS100” value [12] of the same compound?
Answer: Its value is 34.7%.

Question: What about the “inhibition of overall ALDH activity (ALDEFLUOR)” value [13] of the same compound?
Answer: The value was ~ 2.5 fold.

Question: And the IC50 [2, 16]?
Answer: Its IC50 is 8.7 ± 1.1 µM.

Question: What about the IC50 ([3]; FHC) of the same compound?
Answer: Its IC50 is 7.1 ± 0.8 µM.

Question: And the IC50 [4, 17]?
Answer: The IC50 was 2.1 ± 0.1 µM.

Question: And the inhibition at 0.5 µM [5]?
Answer: Its inhibition at 0.5 µM is 51.32 ± 0.01%.

Question: And the “more apoptotic cell population than KS100, caspase-3/7 7-AAD” value [14]?
Answer: Its value is ~ 12.8%.

Question: And the inhibition at 0.5 µM [6]?
Answer: The inhibition at 0.5 µM was 51.87 ± 0.05%.

Question: What about the IC50 ([7]; Homo sapiens, HEK293, FHC and HEK-293, 48 h MTS, read-out: IC50 in normal and embryonic kidney cells) of the same compound?
Answer: The IC50 was 7.1 to 8.7 µM.

Question: What about the IC50 ([7]; Homo sapiens, Pancreatic cancer cell, ovarian, colon, and pancreatic cancer cells, 48 h MTS, read-out: IC50 in cancer cell lines) of the same compound?
Answer: The IC50 was 2.1 to 3.8 µM.

Question: What about the “greater effectiveness than KS100 in targeting cancer cells” value ([7]; from MTS IC50 values) of the same compound?
Answer: The value was 0.5 to 2 times.

Question: And the IC50 at 48 h [9]?
Answer: The IC50 at 48 h was 2.1 to 6.8 µM.

Question: What about the IC50 [8, 18] of the same compound?
Answer: The IC50 was 2.2 ± 0.2 µM.
